Measured values taken from ChEMBL document CHEMBL1201862, “PubChem BioAssay data set” (2004).
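1) Cells in 96-well plates. 2) Compound, 48 h, 5 concentrations. 3) Linear interpolation between surrounding doses. 4) Unreached endpoint = highest concentration. Here, GI50 denotes the concentration required for 50% inhibition of growth.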 Calls of active or inactive are those of the source. No stated cut-off is given here; in the data, active = GI50 up to about 1.1 µM and inactive = higher.

How the values were obtained:
Assay in all cases: inhibition of tumour cell growth, NCI panel, 48 h
NCI-H23 = test system: NCI-H23
UO-31 = test system: UO-31
MDA-MB-435 = test system: MDA-MB-435
NCI-H226 = test system: NCI-H226
NCI-H460 = test system: NCI-H460
SR = test system: SR
SF-268 = test system: SF-268
HOP-92 = test system: HOP-92
T47D = test system: T47D
A498 = test system: A498
CAKI-1 = test system: CAKI-1
MDA-MB-231 = test system: MDA-MB-231
OVCAR-3 = test system: OVCAR-3
HCC 2998 = test system: HCC 2998
SK-OV-3 = test system: SK-OV-3
RPMI-8226 = test system: RPMI-8226
OVCAR-4 = test system: OVCAR-4
EKVX = test system: EKVX
U-251 = test system: U-251
BT-549 = test system: BT-549
MOLT-4 = test system: MOLT-4
ACHN = test system: ACHN
Malme-3M = test system: Malme-3M
OVCAR-8 = test system: OVCAR-8
IGROV-1 = test system: IGROV-1
SF-539 = test system: SF-539
SNB-75 = test system: SNB-75
PC-3 = test system: PC-3
HCT-15 = test system: HCT-15
LOX IMVI = test system: LOX IMVI
CCRF-CEM = test system: CCRF-CEM
A549 = test system: A549
HCT-116 = test system: HCT-116
HL-60 = test system: HL-60
DU-145 = test system: DU-145
OVCAR-5 = test system: OVCAR-5
NCI/ADR-RES = test system: NCI/ADR-RES
MCF7 = test system: MCF7
MDA-N = test system: MDA-N
K562 = test system: K562
SK-MEL-5 = test system: SK-MEL-5
COLO 205 = test system: COLO 205
HT-29 = test system: HT-29
SK-MEL-2 = test system: SK-MEL-2
SNB-19 = test system: SNB-19
Hs-578T = test system: Hs-578T
KM12 = test system: KM12
UACC-257 = test system: UACC-257
TK-10 = test system: TK-10
NCI-H522 = test system: NCI-H522
SN12C = test system: SN12C
SF-295 = test system: SF-295
SK-MEL-28 = test system: SK-MEL-28
SW-620 = test system: SW-620
UACC-62 = test system: UACC-62
HOP-62 = test system: HOP-62
M14 = test system: M14
RXF 393 = test system: RXF 393
786-0 = test system: 786-0

With `Nc1ccn(C2OC(CO[PH](=O)OC3C(CO[PH](=O)OC4C(CO[PH](=O)OC5C(CO[PH](=O)OC6C(CO[PH](=O)OC7C(CO[PH](=O)OC8C(CO[PH](=O)OC9C(CO[PH](=O)OC%10C(CO[PH](=O)OC%11C(CO)OC(n%12ccc(N)nc%12=O)C%11(F)F)OC(n%11ccc(N)nc%11=O)C%10(F)F)OC(n%10ccc(N)nc%10=O)C9(F)F)OC(n9ccc(N)nc9=O)C8(F)F)OC(n8ccc(N)nc8=O)C7(F)F)OC(n7ccc(N)nc7=O)C6(F)F)OC(n6ccc(N)nc6=O)C5(F)F)OC(n5ccc(N)nc5=O)C4(F)F)OC(n4ccc(N)nc4=O)C3(F)F)C(O)C2(F)F)c(=O)n1` (centres undefined) the GI50 (NCI-H23) was 42.3 nM (active), the GI50 (UO-31) was 21.3 nM (active) and the GI50 (MDA-MB-435) was 52.6 nM (active). The GI50 (NCI-H226) was 9440 nM (inactive), the GI50 (NCI-H460) was 20.8 nM (active) and the GI50 (SR) was 18.3 nM (active). For the same compound, the GI50 (SF-268) was 28.5 nM (active), the GI50 (HOP-92) was 155 nM (active) and the GI50 (T47D) was 553 nM (active). For the same compound, the GI50 (A498) was 114 nM (active), the GI50 (CAKI-1) was 31.6 nM (active) and the GI50 (MDA-MB-231) was 1400 nM (inactive). For the same compound, the GI50 (OVCAR-3) was 17100 nM (inactive), the GI50 (HCC 2998) was 80.5 nM (active) and the GI50 (SK-OV-3) was 979 nM (active). The GI50 (RPMI-8226) was 58.2 nM (active), the GI50 (OVCAR-4) was 10000 nM (inactive) and the GI50 (EKVX) was 5460 nM (inactive). The GI50 (U-251) was 37.3 nM (active), the GI50 (BT-549) was 66.1 nM (active) and the GI50 (MOLT-4) was 33.3 nM (active). The GI50 (ACHN) was 5.33 nM (active), the GI50 (Malme-3M) was 391 nM (active) and the GI50 (OVCAR-8) was 15.6 nM (active). The GI50 (IGROV-1) was 912 nM (active), the GI50 (SF-539) was 11.2 nM (active) and the GI50 (SNB-75) was 25.4 nM (active). For the same compound, the GI50 (PC-3) was 5500 nM (inactive), the GI50 (HCT-15) was 442 nM and the GI50 (LOX IMVI) was 41.8 nM (active). For the same compound, the GI50 (CCRF-CEM) was 17.2 nM (active), the GI50 (A549) was 16 nM (active) and the GI50 (HCT-116) was 13.4 nM (active). The GI50 (HL-60) was 19.3 nM (active), the GI50 (DU-145) was 10.9 nM (active) and the GI50 (OVCAR-5) was 111 nM (active). For the same compound, the GI50 (NCI/ADR-RES) was 51 nM (active), the GI50 (MCF7) was 10.3 nM (active) and the GI50 (MDA-N) was 44.2 nM (active). For the same compound, the GI50 (K562) was 1490 nM (inactive), the GI50 (SK-MEL-5) was 1730 nM (inactive) and the GI50 (COLO 205) was 741 nM (active). The GI50 (HT-29) was 112 nM (active), the GI50 (SK-MEL-2) was 2180 nM (inactive) and the GI50 (SNB-19) was 25.9 nM (active). The GI50 (Hs-578T) was 2220 nM (inactive), the GI50 (KM12) was 5380 nM (inactive) and the GI50 (UACC-257) was 340 nM (active). The GI50 (TK-10) was 3030 nM (inactive), the GI50 (NCI-H522) was 1430 nM (inactive) and the GI50 (SN12C) was 66.1 nM (active). For the same compound, the GI50 (SF-295) was 69.7 nM (active), the GI50 (SK-MEL-28) was 594 nM (active) and the GI50 (SW-620) was 577 nM (active). The GI50 (UACC-62) was 46.6 nM (active) and the GI50 (HOP-62) was 58.1 nM (active).
`COc1ccc2oc(C(=O)N3CC(CCl)c4ccc(N)cc43)cc2c1` (centres undefined) was tested, and the GI50 (NCI-H23) was 174 nM (active), the GI50 (UO-31) was 194 nM (active) and the GI50 (MDA-MB-435) was 332 nM (active). The GI50 (NCI-H226) was 1160 nM (inactive), the GI50 (NCI-H460) was 203 nM (active) and the GI50 (M14) was 805 nM (active). The GI50 (SR) was 160 nM (active), the GI50 (SF-268) was 354 nM (active) and the GI50 (HOP-92) was 358 nM (active). For the same compound, the GI50 (T47D) was 310 nM (active), the GI50 (A498) was 296 nM (active) and the GI50 (CAKI-1) was 185 nM (active). The GI50 (MDA-MB-231) was 826 nM (active), the GI50 (OVCAR-3) was 918 nM (active) and the GI50 (HCC 2998) was 489 nM (active). For the same compound, the GI50 (SK-OV-3) was 1350 nM (inactive), the GI50 (RXF 393) was 249 nM (active) and the GI50 (RPMI-8226) was 226 nM (active). The GI50 (OVCAR-4) was 286 nM (active), the GI50 (EKVX) was 933 nM (active) and the GI50 (U-251) was 333 nM (active). For the same compound, the GI50 (BT-549) was 299 nM (active), the GI50 (MOLT-4) was 255 nM (active) and the GI50 (ACHN) was 147 nM (active). The GI50 (OVCAR-8) was 279 nM (active), the GI50 (IGROV-1) was 213 nM (active) and the GI50 (SF-539) was 481 nM (active). The GI50 (SNB-75) was 308 nM (active), the GI50 (PC-3) was 296 nM (active) and the GI50 (HCT-15) was 238 nM. The GI50 (LOX IMVI) was 356 nM (active), the GI50 (CCRF-CEM) was 360 nM (active) and the GI50 (A549) was 303 nM (active). For the same compound, the GI50 (HCT-116) was 161 nM (active), the GI50 (HL-60) was 415 nM (active) and the GI50 (DU-145) was 247 nM (active). The GI50 (OVCAR-5) was 530 nM (active), the GI50 (NCI/ADR-RES) was 213 nM (active) and the GI50 (MCF7) was 465 nM (active). For the same compound, the GI50 (786-0) was 133 nM (active), the GI50 (MDA-N) was 553 nM (active) and the GI50 (K562) was 390 nM (active). The GI50 (SK-MEL-5) was 176 nM (active), the GI50 (COLO 205) was 284 nM (active) and the GI50 (HT-29) was 357 nM (active). The GI50 (SK-MEL-2) was 238 nM (active), the GI50 (SNB-19) was 1140 nM (inactive) and the GI50 (Hs-578T) was 857 nM (active). The GI50 (KM12) was 242 nM (active), the GI50 (UACC-257) was 596 nM (active) and the GI50 (TK-10) was 2900 nM (inactive). For the same compound, the GI50 (NCI-H522) was 18.9 nM (active), the GI50 (SN12C) was 869 nM (active) and the GI50 (SF-295) was 344 nM (active). For the same compound, the GI50 (SK-MEL-28) was 420 nM (active), the GI50 (SW-620) was 348 nM (active) and the GI50 (UACC-62) was 192 nM (active). For the same compound, the GI50 (HOP-62) was 995 nM (active).
